EC50 data for 26 compounds are collected here from US8669271B2 (Boehringer Ingelheim International GmbH, priority 2010, dated 2014).

The structures appear in SMILES notation.

This assay concerns the target T1, human GPR119 (Homo sapiens, UniProt Q8TDV5).
T1 construct: expression vector for human GPR119 cDNA (Acc. No. NP_848566); expressed in transfected cells
T1 sequence (Q8TDV5 1-335): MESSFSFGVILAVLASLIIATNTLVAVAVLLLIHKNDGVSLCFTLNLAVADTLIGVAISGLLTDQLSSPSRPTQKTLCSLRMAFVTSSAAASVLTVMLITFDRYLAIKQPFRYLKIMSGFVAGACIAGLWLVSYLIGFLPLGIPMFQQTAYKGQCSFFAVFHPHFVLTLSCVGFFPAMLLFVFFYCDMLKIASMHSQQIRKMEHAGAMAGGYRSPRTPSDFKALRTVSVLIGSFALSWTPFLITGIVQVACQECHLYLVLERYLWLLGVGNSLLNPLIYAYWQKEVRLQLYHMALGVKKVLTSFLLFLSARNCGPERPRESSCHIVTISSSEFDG
The assay is described as follows: AlphaScreen cAMP assay in Min-6/hGPR119 cells (activation of GPR119, intracellular cAMP). The following applies: MIN6 cells stably transfected with human GPR119; cAMP by AlphaScreen after 45 minutes incubation at room temperature. Type of assay: cell-based. The protocol:
The compounds of formula I according to the invention modulate the activity of the G-protein-coupled receptor GPR119. The effect of the compounds on the activation of GPR119 and on the stimulation of intracellular cAMP concentration is determined using the AlphaScreen cAMP Assay Kit (Cat.No.#6760625R) made by PerkinElmer.
MIN6 cells [Miyazaki J et al. Endocrinology. 1990 July; 127(1):126-32] are stably transfected with an expression vector for human GPR119 cDNA (Acc. No. NP_848566). Min-6/hGPR119 cells are cultured in DMEM, 10% FBS, 50 μM β-mercaptoethanol, 0.3 mg/mL Geniticin, 2 mM GlutaMAX at 37° C. 5% CO2. For the assay, the cells are seeded in Optiplates (white, 384-well, 160W— barcoded, TC, sterile with lid, Cat.No.#6007688 (Perkin Elmer); 10000 cells/well; 50 μl). The plates covered with lids are then incubated for 24 hours at 37° C./5% CO2. After the medium is aspirated from the wells completely, 10 μl of the test compound are added, the compounds are diluted using stimulating buffer (140 mM NaCl, 3.6 mM KCl, 0.5 mM NaH2PO4, 0.5 mM MgSO4, 1.5 mM CaCl2, 10 mM Hepes, 5 mM NaHCO3; pH 7.4. 0.5 mM IBMX and 0.1% BSA, the final DMSO concentration is 1%). After 45 minutes incubation at room temperature (approx. 20° C.), the cAMP concentrations are determined using the AlphaScreen cAMP Assay Kit (Cat.No.#6760625R from PerkinElmer).
A general note: Bead proximity is the source of the signal in Alpha formats.
On to `COc1cc(-c2cc3c(cn2)OC(C2CCN(C(=O)OC(C)(C)C)CC2)C3)ccn1` (centres unmarked) [Example 53, 4-[5-(2-Methoxy-pyridin-4-yl)-2,3-dihydro-furo[2,3-c]pyridin-2-yl]-piperidine-1-carboxylic acid tert-butyl ester], for which the 50% effective concentration (EC50) (as a rule, the concentration that produces a half-maximal response) came out at 122 nM. In the case of `CC(C)(C)OC(=O)N1CCC(C2Cc3cc(-c4ccnnc4)ncc3O2)CC1` (centres unmarked) [Example 54, 4-(5-Pyridazin-4-yl-2,3-dihydro-furo[2,3-c]pyridin-2-yl)-piperidine-1-carboxylic acid tert-butyl ester], the EC50 came out at 265 nM. Compared with the last compound, the EC50 is about 2.2-fold higher.

Consider `CC(C)(C)OC(=O)N1CCC(C2Cc3cc(-c4ccnc(C#N)c4)ncc3O2)CC1` (centres unmarked) [Example 55, 4-[5-(2-Cyano-pyridin-4-yl)-2,3-dihydro-furo[2,3-c]pyridin-2-yl]-piperidine-1-carboxylic acid tert-butyl ester], for which it took 16 nM to reach a half-maximal effect (EC50). The same measure for `CC(C)(C)OC(=O)N1CCC(C2Cc3cc(-c4ccnc(C(F)(F)F)c4)ncc3O2)CC1` (centres unmarked) [Example 56, 4-[5-(2-Trifluoromethyl-pyridin-4-yl)-2,3-dihydro-furo[2,3-c]pyridin-2-yl]-piperidine-1-carboxylic acid tert-butyl ester]: 222 nM. For `Cn1ccc(-c2cc3c(cn2)OC(C2CCN(C(=O)OC(C)(C)C)CC2)C3)cc1=O` (centres unmarked) [Example 57, 4-[5-(1-Methyl-2-oxo-1,2-dihydro-pyridin-4-yl)-2,3-dihydro-furo[2,3-c]pyridin-2-yl]-piperidine-1-carboxylic acid tert-butyl ester], the EC50 was 685 nM. This EC50 lies about 3.1-fold higher than the previous one. Consider `Cn1cc(-c2cc3c(cn2)OC(C2CCN(C(=O)OC(C)(C)C)CC2)C3)ccc1=O` (centres unmarked) [Example 58, 4-[5-(1-Methyl-6-oxo-1,6-dihydro-pyridin-3-yl)-2,3-dihydro-furo[2,3-c]pyridin-2-yl]-piperidine-1-carboxylic acid tert-butyl ester], for which the concentration giving a half-maximal response (EC50) was found to be 133 nM. Turning to `CC(C)(C)OC(=O)N1CCC(C2Cc3cc(-c4ccncc4C#N)ncc3O2)CC1` (centres unmarked) [Example 59, 4-[5-(3-Cyano-pyridin-4-yl)-2,3-dihydro-furo[2,3-c]pyridin-2-yl]-piperidine-1-carboxylic acid tert-butyl ester], the half-maximal effective concentration (EC50) came to 119 nM. This EC50 and that of the compound before are within 1.5-fold of each other. `CC(C)(C)OC(=O)N1CCC(C2Cc3cc(-n4ccncc4=O)ncc3O2)CC1` (centres unmarked) [Example 60, 4-[5-(2-Oxo-2H-pyrazin-1-yl)-2,3-dihydro-furo[2,3-c]pyridin-2-yl]-piperidine-1-carboxylic acid tert-butyl ester] gave an EC50 of 522 nM. Turning to `CS(=O)(=O)Cc1ccc(-c2cc3c(cn2)OC(C2CCN(C(=O)OC4CCC4)CC2)C3)cc1` (centres unmarked) [Example 61, 4-[5-(4-Methanesulfonylmethyl-phenyl)-2,3-dihydro-furo[2,3-c]pyridin-2-yl]-piperidine-1-carboxylic acid cyclobutyl ester], the 50% effective concentration (EC50) came out at 31 nM.

With `CC(C)OC(=O)N1CCC(C2Cc3cc(-c4ccc(CS(C)(=O)=O)cc4)ncc3O2)CC1` (centres unmarked) [Example 62, 4-[5-(4-Methanesulfonylmethyl-phenyl)-2,3-dihydro-furo[2,3-c]pyridin-2-yl]-piperidine-1-carboxylic acid isopropyl ester], the midpoint of the response, the EC50, lay at 36 nM. The same measure for `CC(C)OC(=O)N1CCC(C2Cc3cc(-c4ccc(S(C)(=O)=O)cc4)ncc3O2)CC1` (centres unmarked) [Example 63, 4-[5-(4-Methanesulfonyl-phenyl)-2,3-dihydro-furo[2,3-c]pyridin-2-yl]-piperidine-1-carboxylic acid isopropyl ester]: 18 nM; for `CC1(OC(=O)N2CCC(C3Cc4cc(-c5ccc(CS(C)(=O)=O)cc5)ncc4O3)CC2)CC1` (centres unmarked) [Example 64, 4-[5-(4-Methanesulfonylmethyl-phenyl)-2,3-dihydro-furo[2,3-c]pyridin-2-yl]-piperidine-1-carboxylic acid 1-methyl-cyclopropyl ester]: 51 nM. The same measure for `CC(C)S(=O)(=O)c1ccc(-c2cc3c(cn2)OC(C2CCN(C(=O)OC(C)(C)C)CC2)C3)cc1` (centres unmarked) [Example 65, 4-{5-[4-(Propane-2-sulfonyl)-phenyl]-2,3-dihydro-furo[2,3c]pyridin-2-yl}-piperidine-1-carboxylic acid tert-butyl ester]: 26 nM.

Compound `CCS(=O)(=O)c1ccc(-c2cc3c(cn2)OC(C2CCN(C(=O)OC(C)(C)C)CC2)C3)cc1` (centres unmarked) [Example 66, 4-[5-(4-Ethanesulfonyl-phenyl)-2,3-dihydro-furo[2,3-c]pyridin-2-yl]-piperidine-1-carboxylic acid tert-butyl ester] had an EC50 of 12 nM.

As to `CC(=O)Nc1ccc(-c2cc3c(cn2)OC(C2CCN(C(=O)OC(C)(C)C)CC2)C3)cc1` (centres unmarked) [Example 67, 4-[5-(4-Acetylamino-phenyl)-2,3-dihydro-furo[2,3-c]pyridin-2-yl]-piperidine-1-carboxylic acid tert-butyl ester], a half-maximal effect (EC50) was put at 13 nM. `Cn1cc(-c2cc3c(cn2)OC(C2CCN(C(=O)OC(C)(C)C)CC2)C3)cn1` (centres unmarked) [Example 68, 4-[5-(1-Methyl-1H-pyrazol-4-yl)-2,3-dihydro-furo[2,3-c]pyridin-2-yl]-piperidine-1-carboxylic acid tert-butyl ester]: the concentration for a half-maximal effect (EC50) came to 575 nM. `CC(C)(C)OC(=O)N1CCC(C2Cc3cc(-n4ccnc4)ncc3O2)CC1` (centres unmarked) [Example 69, 4-(5-Imidazol-1-yl-2,3-dihydro-furo[2,3-c]pyridin-2-yl)-piperidine-1-carboxylic acid tert-butyl ester] gave a 50% effective concentration (EC50) of 162 nM. As for `Cc1nccn1-c1cc2c(cn1)OC(C1CCN(C(=O)OC(C)(C)C)CC1)C2` (centres unmarked) [Example 70, 4-[5-(2-Methyl-imidazol-1-yl)-2,3-dihydro-furo[2,3-c]pyridin-2-yl]-piperidine-1-carboxylic acid tert-butyl ester], the concentration for a half-maximal effect (EC50) was found to be 706 nM. This EC50 is about 4.4-fold higher than that of the compound before.

`CC(C)(C)OC(=O)N1CCC([C@@H]2Cc3cc(-c4ccc(S(C)(=O)=O)cn4)ccc3O2)CC1` [Example 71, (S)-4-[5-(5-Methanesulfonyl-pyridin-2-yl)-2,3-dihydro-benzofuran-2-yl]-piperidine-1-carboxylic acid tert-butyl ester] had a half-maximal effective concentration (EC50) of 11 nM. For `CC(C)(C)OC(=O)N1CCC([C@H]2Cc3cc(-c4ccc(S(C)(=O)=O)cn4)ccc3O2)CC1` [Example 72, (R)-4-[5-(5-Methanesulfonyl-pyridin-2-yl)-2,3-dihydro-benzofuran-2-yl]-piperidine-1-carboxylic acid tert-butyl ester], the response was half-maximal at 97 nM (EC50). `CC(C)(C)OC(=O)N1CCC([C@@H]2Cc3nc(-c4ccc(S(C)(=O)=O)cc4)ncc3O2)CC1` [Example 73, (S)-4-[2-(4-Methanesulfonyl-phenyl)-6,7-dihydro-furo[3,2-d]pyrimidin-6-yl]-piperidine-1-carboxylic acid tert-butyl ester] yielded an EC50 of 27 nM. The same measure for `CC(C)(C)OC(=O)N1CCC([C@H]2Cc3nc(-c4ccc(S(C)(=O)=O)cc4)ncc3O2)CC1` [Example 74, (R)-4-[2-(4-Methanesulfonyl-phenyl)-6,7-dihydro-furo[3,2-d]pyrimidin-6-yl]-piperidine-1-carboxylic acid tert-butyl ester]: 218 nM; for `CC(C)(C)OC(=O)N1CCC(C2(C)Cc3cc(-c4ccc(S(C)(=O)=O)cc4)ncc3O2)CC1` (centres unmarked) [Example 77, 4-[5-(4-Methanesulfonyl-phenyl)-2-methyl-2,3-dihydro-furo[2,3-c]pyridin-2-yl]-piperidine-1-carboxylic acid tert-butyl ester]: 14 nM; for `CC(C)(C)OC(=O)N1CCC(C2(C)Cc3cc(C4=CCN(S(C)(=O)=O)CC4)ncc3O2)CC1` (centres unmarked) [Example 78, 4-[5-(1-Methanesulfonyl-1,2,3,6-tetrahydro-pyridin-4-yl)-2-methyl-2,3-dihydro-furo[2,3-c]pyridin-2-yl]-piperidine-1-carboxylic acid tert-butyl ester]: 15 nM. For `CC(C)(C)OC(=O)N1CCC(C2(C)Cc3cc(N4CCN(S(C)(=O)=O)CC4)ncc3O2)CC1` (centres unmarked) [Example 79, 4-[5-(4-Methanesulfonyl-piperazin-1-yl)-2-methyl-2,3-dihydro-furo[2,3-c]pyridin-2-yl]-piperidine-1-carboxylic acid tert-butyl ester], the EC50 worked out at 40 nM.

Regarding `CC(C)(C)OC(=O)N1CCC(C2(C)Cc3cc(-c4ccc(CS(C)(=O)=O)cc4)ncc3O2)CC1` (centres unmarked) [Example 80, 4-[5-(4-Methanesulfonylmethyl-phenyl)-2-methyl-2,3-dihydro-furo[2,3-c]pyridin-2-yl]-piperidine-1-carboxylic acid tert-butyl ester], the half-maximal effective concentration (EC50) was 24 nM.
